Laboratory results published in paper PMC5831858, “Pharmacological characterisation of CR6086, a potent prostaglandin E2 receptor 4 antagonist, as a new potential disease-modifying anti-rheumatic drug” (Arthritis Research & Therapy, 2018).
Marks after values point to notes of the source that are not given here.

Columns and labels:
IL-6 gene expression = IL-6 gene expression in THP-1 cells differentiated to macrophages; assay type: cell-based; details: Homo sapiens, LPS 10 ng/ml + PGE2 10 nM, read-out: IC50 transcription of IL-6
Description: The human monocyte cell line THP-1 was obtained from the ATCC and was grown according to the instructions provided. THP-1 monocytic cells were differentiated to macrophages with 100 nM phorbol 12-myristate 13-acetate (PMA) for 4 days. Macrophages were then stimulated with lipopolysaccharide (LPS) 10 ng/ml and PGE2 10 nM for 3 or 24 h. Total RNA was purified using the ABI Prism 6100 Nucleic Acid PrepStation (Applied Biosystems, Foster City, CA, USA) and retrotranscribed using the High-Capacity cDNA Reverse Transcription Kit (Thermo Fisher Scientific). RT-PCR analysis was performed using the Applied Biosystems 7500 Fast Real-Time PCR System using specific TaqMan assays (number Hs00174131_m1 for IL-6, number Hs00900054_m1 for vascular endothelial growth factor A [VEGFA]; Thermo Fisher Scientific) and, as an endogenous control, the 18S Pre-Developed TaqMan® Assay (Thermo Fisher Scientific). The data analysis, with normalisation on 18S amplified values, was done following Thermo Fisher Scientific’s specific instructions for gene expression relative quantification. All individual data are the result of at least three different analyses for each sample.

rat EP4 receptor = rat EP4 receptor (Rattus norvegicus, UniProt P43114); assay: EP4 receptor occupancy estimation from plasma exposure; details: 3 mg/kg; repeated doses
Description: CR6086 concentrations in rat plasma were determined by high-performance liquid chromatography (Agilent 1200 series; Agilent Technologies, Santa Clara, CA, USA) coupled with a triple-quadrupole mass spectrometer (API 4000 QTRAP; SCIEX, Concord, ON, Canada). A ZORBAX SB-C18 2.0 × 50-mm, 3.5-μm column (Agilent Technologies) in isocratic conditions was used with mobile phase 0.1% formic acid in water/acetonitrile (68:32 vol/vol). The method was linear within the dynamic range 1.0–10,000 ng/ml (lower to upper limit of quantification). CR6086 plasma protein binding was determined in the 0.2–200 μM concentration range using [^14C]CR6086 and equilibrium dialysis. EP4 receptor occupancy (RO) was calculated on the basis of CR6086 concentrations according to the following formula: RO%=Cave/Cave+Ki×100,
An estimation of the receptor occupancy was attempted in the dose range investigated in CIA rats. Because the CIA experiments were conducted after repeated doses, whereas the exposure shown above was determined after a single dose of CR6086, receptor occupancy estimation in the CIA rats took into consideration the accumulation ratio of CR6086 after repeated doses averaging 1.19 in male rats. […] Thus, in our experiments, clinically relevant effects in the CIA rat model were observed starting from approximately 50% EP4 receptor occupancy. […]

[1] = system: arthritic mice (collagen-induced arthritis model); assay: FACS analysis of cell populations in the joint, CIA mice; assay type: in vivo, mouse; details: CR6086 60 mg/kg, naproxen 60 mg/kg, etanercept 10 mg/kg, mean ± SEM
Description: In a first study, mice were randomised into the following treatment groups: vehicle, 30 mg/kg CR6086, 60 mg/kg CR6086, 60 mg/kg naproxen and 10 mg/kg etanercept. Animals received the test drugs for 10 days. CR6086 and naproxen were administered orally once daily, whereas etanercept was administered intraperitoneally every other day. Animals treated with vehicle, 60 mg/kg CR6086, naproxen and etanercept were additionally analysed for the proportion of populations of Th17 cells, Th1 cells, regulatory T cells, B cells, macrophages, neutrophils and dendritic cells by fluorescence-activated cell sorting (FACS) after collection of blood, draining lymph nodes and joints.

EP1 = biological target: T1, EP1 (Homo sapiens, UniProt P34995); assay: Eicosanoid receptor EP1 binding; details: [^3H]PGE2, HEK-293 cells, read-out: CR6086 Activity at 10µM
T1 construct: host or cells: HEK-293 cells

β1 = β1 (Homo sapiens, UniProt P08588); assay: Adrenergic receptor β1 binding; details: [^3H](-)CGP 12177, Human recombinant HEK-293 cells, read-out: CR6086 Activity at 10µM
D3 = D3 (Homo sapiens, UniProt P35462); assay: Dopamine receptor D3 binding; details: [^3H]methyl-spiperone, Human recombinant CHO cells, read-out: CR6086 Activity at 10µM
5-HT5a = 5-HT5a (Homo sapiens, UniProt P47898); assay: Serotonin receptor 5-HT5a binding; details: [^3H]LSD, Human recombinant HEK-293 cells, read-out: CR6086 Activity at 10µM
5-HT6 = 5-HT6 (Homo sapiens, UniProt P50406); assay: Serotonin receptor 5-HT6 binding; details: [^3H]LSD, Human recombinant CHO cells, read-out: CR6086 Activity at 10µM
CCR1 = CCR1 (Homo sapiens, UniProt P32246); assay: CCR1 receptor binding; details: [^125I]MIP-1α, Human recombinant HEK-293 cells, read-out: CR6086 Activity at 10µM
PDGF = PDGF receptor binding; details: [^125I]PDGF BB, Balb/c 3T3 cells
TNF-α = TNF-α receptor binding; details: [^125I]TNF-α, U-937 cells
GR = GR (Homo sapiens, UniProt P04150); assay: Nuclear receptor GR binding; details: [^3H]dexamethasone, IM-9 cells (cytosol), read-out: CR6086 Activity at 10µM
[2] = system: Ca2+ channel (L, verapamil site); assay: Ion channel Ca2+ (L, verapamil site) binding; details: up to 100µM (cell); [^3H]verapamil [^3H]D888; Rat cerebral cortex

Sequence of CCR1 (P32246 whole entry): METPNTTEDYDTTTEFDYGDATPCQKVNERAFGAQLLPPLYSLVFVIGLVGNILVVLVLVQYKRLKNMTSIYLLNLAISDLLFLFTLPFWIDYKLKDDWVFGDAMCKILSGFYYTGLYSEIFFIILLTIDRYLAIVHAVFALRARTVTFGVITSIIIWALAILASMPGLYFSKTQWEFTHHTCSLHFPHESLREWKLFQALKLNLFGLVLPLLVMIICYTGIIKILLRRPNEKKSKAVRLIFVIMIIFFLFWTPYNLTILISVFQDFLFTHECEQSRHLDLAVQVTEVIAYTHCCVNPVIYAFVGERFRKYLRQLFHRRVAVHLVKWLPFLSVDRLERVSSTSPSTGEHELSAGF
Sequence of D3 (P35462 whole entry): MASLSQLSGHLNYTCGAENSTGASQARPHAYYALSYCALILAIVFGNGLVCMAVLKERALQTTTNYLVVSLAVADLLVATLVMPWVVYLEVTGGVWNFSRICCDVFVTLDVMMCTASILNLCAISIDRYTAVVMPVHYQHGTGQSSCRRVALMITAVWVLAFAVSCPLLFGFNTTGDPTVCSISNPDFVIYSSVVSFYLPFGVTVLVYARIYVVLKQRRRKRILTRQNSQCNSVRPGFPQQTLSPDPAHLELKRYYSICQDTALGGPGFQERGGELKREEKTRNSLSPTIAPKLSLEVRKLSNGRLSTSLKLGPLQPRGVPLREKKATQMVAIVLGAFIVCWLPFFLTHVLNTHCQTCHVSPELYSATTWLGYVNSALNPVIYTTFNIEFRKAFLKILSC
Sequence of GR (P04150 whole entry): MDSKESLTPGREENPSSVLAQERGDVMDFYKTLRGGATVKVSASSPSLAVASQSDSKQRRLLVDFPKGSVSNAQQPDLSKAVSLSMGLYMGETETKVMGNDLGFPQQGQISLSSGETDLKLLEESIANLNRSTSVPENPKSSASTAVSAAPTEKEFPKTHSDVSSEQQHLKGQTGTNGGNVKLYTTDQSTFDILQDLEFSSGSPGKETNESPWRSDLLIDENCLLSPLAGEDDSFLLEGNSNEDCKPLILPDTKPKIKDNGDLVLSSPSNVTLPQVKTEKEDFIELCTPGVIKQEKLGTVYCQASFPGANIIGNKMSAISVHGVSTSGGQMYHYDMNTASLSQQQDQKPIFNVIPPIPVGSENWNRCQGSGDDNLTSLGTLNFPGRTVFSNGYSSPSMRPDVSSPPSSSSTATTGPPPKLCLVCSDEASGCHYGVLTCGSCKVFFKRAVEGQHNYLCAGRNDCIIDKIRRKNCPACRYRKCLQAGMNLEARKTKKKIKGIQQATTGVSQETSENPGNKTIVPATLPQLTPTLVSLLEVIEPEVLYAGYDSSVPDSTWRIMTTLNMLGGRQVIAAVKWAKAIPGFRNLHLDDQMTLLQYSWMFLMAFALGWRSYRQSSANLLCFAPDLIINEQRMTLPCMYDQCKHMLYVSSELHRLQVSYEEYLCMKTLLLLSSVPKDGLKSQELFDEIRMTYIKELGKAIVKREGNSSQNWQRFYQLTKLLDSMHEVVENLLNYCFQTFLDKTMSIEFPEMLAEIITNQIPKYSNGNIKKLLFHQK
Sequence of rat EP4 receptor (P43114 whole entry): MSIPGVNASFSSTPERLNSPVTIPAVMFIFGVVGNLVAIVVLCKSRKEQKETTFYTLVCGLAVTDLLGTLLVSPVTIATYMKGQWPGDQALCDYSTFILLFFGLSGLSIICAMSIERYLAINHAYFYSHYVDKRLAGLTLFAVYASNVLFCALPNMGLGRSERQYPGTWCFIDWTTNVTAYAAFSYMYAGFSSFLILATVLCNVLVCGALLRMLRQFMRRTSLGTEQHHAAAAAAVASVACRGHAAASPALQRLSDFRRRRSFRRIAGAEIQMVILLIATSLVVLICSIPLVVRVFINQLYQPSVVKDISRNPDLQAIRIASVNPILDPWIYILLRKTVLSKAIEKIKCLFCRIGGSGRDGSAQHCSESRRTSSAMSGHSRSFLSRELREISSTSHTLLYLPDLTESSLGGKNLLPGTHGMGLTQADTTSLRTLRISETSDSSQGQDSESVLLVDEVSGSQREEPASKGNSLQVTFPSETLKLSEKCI
Sequence of β1 (P08588 whole entry): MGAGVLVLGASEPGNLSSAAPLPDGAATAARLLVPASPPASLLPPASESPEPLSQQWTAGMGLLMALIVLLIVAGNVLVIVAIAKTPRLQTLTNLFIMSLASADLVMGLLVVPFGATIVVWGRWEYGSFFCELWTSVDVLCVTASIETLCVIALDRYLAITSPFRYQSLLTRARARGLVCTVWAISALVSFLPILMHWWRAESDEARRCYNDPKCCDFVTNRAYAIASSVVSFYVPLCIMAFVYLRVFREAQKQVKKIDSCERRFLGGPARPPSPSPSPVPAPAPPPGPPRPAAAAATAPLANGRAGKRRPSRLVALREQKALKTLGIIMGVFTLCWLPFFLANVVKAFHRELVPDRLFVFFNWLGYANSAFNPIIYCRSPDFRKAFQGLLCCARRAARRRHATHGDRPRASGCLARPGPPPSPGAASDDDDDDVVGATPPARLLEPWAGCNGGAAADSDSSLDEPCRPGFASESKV
T1 sequence (P34995 whole entry): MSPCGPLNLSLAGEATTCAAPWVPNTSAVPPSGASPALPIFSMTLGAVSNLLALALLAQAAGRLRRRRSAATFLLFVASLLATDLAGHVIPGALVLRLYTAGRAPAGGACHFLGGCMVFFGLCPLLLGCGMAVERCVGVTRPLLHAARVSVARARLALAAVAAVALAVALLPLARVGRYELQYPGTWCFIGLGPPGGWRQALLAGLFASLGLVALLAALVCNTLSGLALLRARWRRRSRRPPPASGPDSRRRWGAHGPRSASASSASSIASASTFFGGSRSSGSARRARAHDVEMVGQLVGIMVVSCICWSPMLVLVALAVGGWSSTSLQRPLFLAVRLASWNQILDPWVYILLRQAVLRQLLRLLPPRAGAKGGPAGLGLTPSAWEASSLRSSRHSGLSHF
Sequence of 5-HT5a (P47898 whole entry): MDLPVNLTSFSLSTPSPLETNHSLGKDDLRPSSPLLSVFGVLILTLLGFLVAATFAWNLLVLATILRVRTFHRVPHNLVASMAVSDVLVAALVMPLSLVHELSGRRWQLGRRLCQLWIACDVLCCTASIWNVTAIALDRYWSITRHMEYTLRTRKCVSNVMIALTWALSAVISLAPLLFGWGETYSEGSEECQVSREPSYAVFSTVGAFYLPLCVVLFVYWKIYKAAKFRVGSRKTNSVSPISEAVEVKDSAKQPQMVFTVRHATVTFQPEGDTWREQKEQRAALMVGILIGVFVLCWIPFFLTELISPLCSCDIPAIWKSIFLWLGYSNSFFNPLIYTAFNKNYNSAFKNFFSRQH
Sequence of 5-HT6 (P50406 whole entry): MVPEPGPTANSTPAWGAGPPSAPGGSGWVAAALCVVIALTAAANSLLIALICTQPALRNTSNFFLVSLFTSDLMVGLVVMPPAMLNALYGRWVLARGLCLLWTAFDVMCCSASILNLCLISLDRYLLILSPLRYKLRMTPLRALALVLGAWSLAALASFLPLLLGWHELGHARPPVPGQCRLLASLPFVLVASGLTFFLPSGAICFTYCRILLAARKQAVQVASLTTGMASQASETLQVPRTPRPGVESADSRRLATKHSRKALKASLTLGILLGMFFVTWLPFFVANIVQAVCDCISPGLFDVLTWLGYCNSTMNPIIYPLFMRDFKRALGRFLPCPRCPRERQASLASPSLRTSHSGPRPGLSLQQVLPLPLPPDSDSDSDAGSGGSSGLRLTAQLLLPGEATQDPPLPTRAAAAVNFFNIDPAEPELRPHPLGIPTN

With `O=C([O-])c1ccc(C2(NC(=O)[C@H]3CC4(CCN3Cc3ccc(C(F)(F)F)cc3)CC4)CC2)cc1.[Na+]` [CR6086, Sodium (R)-4-(1-(6-(4-(trifluoromethyl)benzyl)-6-azaspiro[2.5]octane-5-carboxamido)cyclopropyl)benzoate] the IC50 (IL-6 gene expression) was 70 nM, the “estimated EP4 receptor occupancy” value (rat EP4 receptor) was “approximately 50%” and the “B cells, Percentage of total cells” value [1] was 6.65 ± 0.72%. For the same molecule, the “Dendritic cells, Percentage of total cells” value [1] was 1.72 ± 0.44%, the “Macrophages, Percentage of total cells” value [1] was 11.14 ± 2.93^a % and the “Neutrophils, Percentage of total cells” value [1] was 9.98 ± 2.89^a %. For the same molecule, the “Th1, Percentage of total cells” value [1] was 0.14 ± 0.03^b %, the “Th17, Percentage of total cells” value [1] was 0.06 ± 0.01^b % and the “Treg, Percentage of total cells” value [1] was 0.38 ± 0.12%. The inhibition at 10 µM (EP1) was under 20%, the inhibition at 10 µM (β1) was under 20% and the inhibition at 10 µM (D3) was under 20%. The inhibition at 10 µM (5-HT5a) was under 20%, the inhibition at 10 µM (5-HT6) was under 20% and the inhibition at 10 µM (CCR1) was under 20%. For the same molecule, the “CR6086 Activity at 10µM” value (PDGF) was “IN (IN = < 20% displacement or inhibition (all tables))”, the “CR6086 Activity at 10µM” value (TNF-α) was “IN (IN = < 20% displacement or inhibition (all tables))” and the inhibition at 10 µM (GR) was under 20%. The “CR6086 Activity at 10µM” value [2] was “IN up to 100µM (IN = < 20% displacement or inhibition (all tables))”.
